Test results taken from US3965109A, “Certain aryl amino pyridines” (priority 1971, dated 1976).

How the values were obtained:
[1] = tested on: Puccinia recondita (wheat); assay: Fungicidal test against foliar disease A (foliage spray plus soil drench); assay type: in vivo; conditions: 100 ppm spray and drench; 10 days
[2] = tested on: Phytophthora infestans (tomato); assay type: in vivo; conditions: 100 ppm spray and drench; 3 days
[3] = tested on: Plasmopara viticola (vine); assay: Fungicidal test against foliar disease C (foliage spray plus soil drench); assay type: in vivo; conditions: 100 ppm spray and drench; 10 days
Uncinula necator (vine) = assay: Fungicidal test against foliar disease D (foliage spray plus soil drench); assay type: in vivo; conditions: 100 ppm spray and drench; 10 days
[4] = tested on: Piricularia oryzae (rice); assay type: in vivo; conditions: 100 ppm spray and drench; 7 days
[5] = tested on: Tetranychus telarius (red spider mites, adults); assay: Pest toxicity test; assay type: in vivo; conditions: 0.1% by weight; French bean; 3 days
Aphis fabae = assay: Pest toxicity test; assay type: in vivo; conditions: 0.1% by weight; broad bean; 2 days
Megoura viceae = assay: Pest toxicity test; assay type: in vivo; conditions: 0.1% by weight; broad bean; 2 days
[6] = tested on: Aedes aegypti (mosquito larvae); assay: Pest toxicity test; assay type: in vivo; conditions: 0.01% by weight; water; 1 day
[7] = tested on: Aedes aegypti (mosquito adults); assay: Pest toxicity test; assay type: in vivo; conditions: 0.01% by weight; plywood; 1 day
[8] = tested on: Musca domestica (houseflies); assay: Pest toxicity test, contact test; assay type: in vivo; conditions: 0.1% by weight; milk/sugar; 2 days; flies sprayed directly
[9] = tested on: Pieris brassicae (cabbage white caterpillars); assay: Pest toxicity test; assay type: in vivo; conditions: 0.1% by weight, 2 days
[10] = tested on: Plutella maculipennis (diamond back moth larvae); assay: Pest toxicity test; assay type: in vivo
[11] = tested on: Phaedon cochleariae (mustard beetles); assay: Pest toxicity test; assay type: in vivo
Lettuce = assay: Herbicidal test, pre- and post-emergence; assay type: in vivo; conditions: 10 kg/ha; scale 0 to 3 (complete kill)
Tomato = assay: Herbicidal test, pre- and post-emergence; assay type: in vivo; conditions: 10 kg/ha; scale 0 to 3 (complete kill)
Wheat = assay: Herbicidal test, pre- and post-emergence; assay type: in vivo; conditions: 10 kg/ha; scale 0 to 3 (complete kill)
Maize = assay: Herbicidal test, pre- and post-emergence; assay type: in vivo; conditions: 10 kg/ha; scale 0 to 3 (complete kill)
[12] = tested on: Tetranychus telarius (red spider mites, eggs); assay: Pest toxicity test; assay type: in vivo; conditions: 0.1% by weight; French bean; 3 days
[13] = tested on: Agriolimax reticulatus (slugs); assay: Molluscicidal activity test; assay type: in vivo, Agriolimax reticulatus (Mull); conditions: pellet with 4% by weight; 6 days; 10°C
Procedure: A weighed sample of the compound under test was dissolved in 0.5 c.c. of an ethanol and acetone mixture 50:50 v/v). The solution was diluted with 0.5 cc water and poured onto a calf feeding pellet in a glass Petri dish. The pellet was then air dried for 24 hours. The weight of compound used was chosen so that the dried pellet contained 4% by weight of the active ingredient. Two replicates each consisting of a plastic Petri dish containing a pellet, 2 slugs, and a moistened filter paper to maintain a high relative humidity were used in each test. The dishes were left in a cold room (10°C.) After 6 days the kill was assessed.
The slugs used were Agriolimax reticulatus (Mull), and they had been starved for 24 hours before the commencement of the tests.

Sugar beet = assay: Further herbicidal test, various rates; assay type: in vivo; conditions: scale 0 to 5 (complete kill)
Kale = assay: Further herbicidal test, various rates; assay type: in vivo; conditions: scale 0 to 5 (complete kill)
Carrot = assay: Further herbicidal test, various rates; assay type: in vivo; conditions: scale 0 to 5 (complete kill)
Pea = assay: Further herbicidal test, various rates; assay type: in vivo; conditions: scale 0 to 5 (complete kill)
Onion = assay: Further herbicidal test, various rates; assay type: in vivo; conditions: scale 0 to 5 (complete kill)
Barley = assay: Further herbicidal test, various rates; assay type: in vivo; conditions: scale 0 to 5 (complete kill)
Rice = assay: Further herbicidal test, various rates; assay type: in vivo; conditions: scale 0 to 5 (complete kill)
Oat = assay: Further herbicidal test, various rates; assay type: in vivo; conditions: scale 0 to 5 (complete kill)
[14] = 0.1% by weight, mustard/paper, 2 days

## Fc1nc(F)c(Cl)c(Nc2c(Cl)c(Cl)c(Cl)c(Cl)c2Cl)c1Cl [Compound 9, 3,5-Dichloro-2,6-difluoro-4(pentachloroanilino)pyridine]
[1]
  Amount of disease grading, disease A: 3 (0 to 5)
[2]
  Amount of disease grading, disease B: 0 (61 to 100)
[3]
  Amount of disease grading, disease C: 0 (61 to 100)
Uncinula necator (vine)
  Amount of disease grading, disease D: 3 (0 to 5)
[4]
  Amount of disease grading, disease E: 3 (0 to 5)
[5]
  Mortality grading (kill): 3 (3 represents over 90% kill)
Aphis fabae
  Mortality grading (kill): 0 (O represents less than 30% kill)
Megoura viceae
  Mortality grading (kill): 0 (O represents less than 30% kill)
[6]
  Mortality grading (kill): 3 (3 represents over 90% kill)
[7]
  Mortality grading (kill): 0 (O represents less than 30% kill)
[8]
  Mortality grading (kill), contact test: 3 (3 represents over 90% kill)
[9]
  Mortality grading (kill): 0 (O represents less than 30% kill)
[10]; in vivo
  Mortality grading (kill): 3 (key: O represents less than 30% kill; 1 represents 30 - 49% kill; 2 represents 60 - 90% kill; 3 represents over 90% kill; C indicates a chemosterilant effect.; A indicates an antifeeding effect.)
[11]; in vivo
  Mortality grading (kill): 1 (key: O represents less than 30% kill; 1 represents 30 - 49% kill; 2 represents 60 - 90% kill; 3 represents over 90% kill; C indicates a chemosterilant effect.; A indicates an antifeeding effect.)

## N#Cc1cc([N+](=O)[O-])ccc1Nc1c(Cl)c(F)nc(F)c1Cl [Compound 26, 4(2-Cyano-4-nitroanilino)-3,5-dichloro-2,6-difluoropyridine]
[2]
  Amount of disease grading, disease B (Table 4): 3 (0 to 5)
[3]
  Amount of disease grading, disease C (Table 4): 3 (0 to 5)
[4]
  Amount of disease grading, disease E (Table 4): 0 (61 to 100)
Lettuce
  Damage to plants, post-emergence: 3
  Damage to plants, pre-emergence: 3
Tomato
  Damage to plants, post-emergence: 0
  Damage to plants, pre-emergence: 3
Wheat
  Damage to plants, pre-emergence: 1
Maize
  Damage to plants, post-emergence: 0
  Damage to plants, pre-emergence: 0

## O=[N+]([O-])c1ccc(Nc2c(F)c(F)nc(F)c2Cl)c(C(F)(F)F)c1 [Compound 32, 3-Chloro-4(4-nitro-2-trifluoromethylanilino)-2,5,6-trifluoropyridine]
[1]
  Amount of disease grading, disease A (Table 4): 3 (0 to 5)
[3]
  Amount of disease grading, disease C (Table 4): 3 (0 to 5)
Uncinula necator (vine)
  Amount of disease grading, disease D (Table 4): 3 (0 to 5)
[5]
  Mortality grading (kill): 3 (3 represents over 90% kill)
[12]
  Mortality grading (kill): 3 (3 represents over 90% kill)
Aphis fabae
  Mortality grading (kill): 3 (3 represents over 90% kill)
Megoura viceae
  Mortality grading (kill): 0 (O represents less than 30% kill)
[6]
  Mortality grading (kill): 3 (3 represents over 90% kill)
[7]
  Mortality grading (kill): 2 (2 represents 60 - 90% kill)
[9]
  Mortality grading (kill): 3 (3 represents over 90% kill)
[10]; [14]
  Mortality grading (kill): 2 (2 represents 60 - 90% kill)
[11]; [14]
  Mortality grading (kill): 0 (O represents less than 30% kill)
[13]
  % Kill of slugs: 100%
Lettuce
  Damage to plants, post-emergence: 3
  Damage to plants, pre-emergence: 3
Tomato
  Damage to plants, post-emergence: 3
  Damage to plants, pre-emergence: 3
Wheat
  Damage to plants, post-emergence: 0
  Damage to plants, pre-emergence: 3
Maize
  Damage to plants, post-emergence: 0
  Damage to plants, pre-emergence: 1
Sugar beet; 1 kg/hectare
  Damage to plants, post-emergence: 5
  Damage to plants, pre-emergence: 4
Sugar beet; 5 kg/hectare
  Damage to plants, post-emergence: 5
  Damage to plants, pre-emergence: 5
Kale; 1 kg/hectare
  Damage to plants, post-emergence: 5
  Damage to plants, pre-emergence: 4
Kale; 5 kg/hectare
  Damage to plants, post-emergence: 4
  Damage to plants, pre-emergence: 5
Carrot; 1 kg/hectare
  Damage to plants, post-emergence: 2
  Damage to plants, pre-emergence: 3
Carrot; 5 kg/hectare
  Damage to plants, post-emergence: 4
  Damage to plants, pre-emergence: 5
Pea; 1 kg/hectare
  Damage to plants, post-emergence: 3
  Damage to plants, pre-emergence: 3
Pea; 5 kg/hectare
  Damage to plants, post-emergence: 2
  Damage to plants, pre-emergence: 5
Onion; 1 kg/hectare
  Damage to plants, post-emergence: 1
Onion; 5 kg/hectare
  Damage to plants, post-emergence: 0
  Damage to plants, pre-emergence: 5
Barley; 1 kg/hectare
  Damage to plants, post-emergence: 1
  Damage to plants, pre-emergence: 4
Barley; 5 kg/hectare
  Damage to plants, post-emergence: 1
  Damage to plants, pre-emergence: 4
Rice; 1 kg/hectare
  Damage to plants, post-emergence: 0
  Damage to plants, pre-emergence: 4
Rice; 5 kg/hectare
  Damage to plants, post-emergence: 0
  Damage to plants, pre-emergence: 5
Oat; 1 kg/hectare
  Damage to plants, post-emergence: 1
  Damage to plants, pre-emergence: 3
Oat; 5 kg/hectare
  Damage to plants, post-emergence: 0
  Damage to plants, pre-emergence: 4

## Fc1nc(F)c(Cl)c(Nc2c(Cl)c(F)c(Cl)c(F)c2Cl)c1Cl [Compound 43, 3,5-Dichloro-2,6-difluoro-4(3,5-difluoro-2,4,6-trichloroanilino) pyridine]
Uncinula necator (vine)
  Amount of disease grading, disease D (Table 4): 3 (0 to 5)
[5]
  Mortality grading (kill): 3 (3 represents over 90% kill)
[12]
  Mortality grading (kill): 3 (3 represents over 90% kill)
Aphis fabae
  Mortality grading (kill): 3 (3 represents over 90% kill)
Megoura viceae
  Mortality grading (kill): 3 (3 represents over 90% kill)
[6]
  Mortality grading (kill): 3 (3 represents over 90% kill)
[7]
  Mortality grading (kill): 0 (O represents less than 30% kill)
[8]
  Mortality grading (kill), contact test: 3 (3 represents over 90% kill)
[9]
  Mortality grading (kill): 3 (3 represents over 90% kill)
[10]; in vivo
  Mortality grading (kill): 2 (key: O represents less than 30% kill; 1 represents 30 - 49% kill; 2 represents 60 - 90% kill; 3 represents over 90% kill; C indicates a chemosterilant effect.; A indicates an antifeeding effect.)
[11]; in vivo
  Mortality grading (kill): 0 (key: O represents less than 30% kill; 1 represents 30 - 49% kill; 2 represents 60 - 90% kill; 3 represents over 90% kill; C indicates a chemosterilant effect.; A indicates an antifeeding effect.)
[13]
  % Kill of slugs: 100%
Lettuce
  Damage to plants, post-emergence: 3
  Damage to plants, pre-emergence: 3
Tomato
  Damage to plants, post-emergence: 3
  Damage to plants, pre-emergence: 1
Wheat
  Damage to plants, post-emergence: 0
  Damage to plants, pre-emergence: 1
Maize
  Damage to plants, post-emergence: 2
  Damage to plants, pre-emergence: 0
Sugar beet; 5 kg/hectare
  Damage to plants, post-emergence: 5
  Damage to plants, pre-emergence: 0
Kale; 5 kg/hectare
  Damage to plants, post-emergence: 5
  Damage to plants, pre-emergence: 1
Carrot; 5 kg/hectare
  Damage to plants, post-emergence: 5
  Damage to plants, pre-emergence: 0
Pea; 5 kg/hectare
  Damage to plants, post-emergence: 5
  Damage to plants, pre-emergence: 0
Onion; 5 kg/hectare
  Damage to plants, pre-emergence: 0
Barley; 5 kg/hectare
  Damage to plants, post-emergence: 3
  Damage to plants, pre-emergence: 1
Rice; 5 kg/hectare
  Damage to plants, post-emergence: 1
  Damage to plants, pre-emergence: 0
Oat; 5 kg/hectare
  Damage to plants, post-emergence: 4
  Damage to plants, pre-emergence: 0
